Measurements published in patent publication US11584765B2 (priority 2017, dated 2023).

Tested on: C57BL/6 mice
Experiment: animal or person
Format: in vivo
Conditions: Mus musculus, sc, 0.5 h, s.c. administration, 30 min, 55° C. water, read-out: ED50 (mg/kg) at 30 min on C57BL/6 mice in Warm-water Tail-flick Test

## CCOC[C@@]1(CCc2ccnc(OC)c2)CCN(C(C)(C)c2ccc(C)nc2)C1.Cl [Compound 361, (S)-4-(2-(3-(ethoxymethyl)-1-(2-(6-methylpyridin-3-yl)propan-2-yl)pyrrolidin-3-yl)ethyl)-2-methoxypyridine HCl]
  ED50: < 10 mg/kg

## CCOCC1(CCc2ccccc2)CCN(Cc2ccc(-n3ccnn3)cc2)CC1 [Compound 157]
  ED50: > 10 mg/kg

## CCOC[C@@]1(CCc2ccc(F)cn2)CCN(Cc2cnc3ccccc3c2)C1 [Compound 439, (S)-3-((3-(ethoxymethyl)-3-(2-(5-fluoropyridin-2-yl)ethyl)pyrrolidin-1-yl)methyl)quinoline]
  ED50: < 10 mg/kg

## Cc1ccc(C(C)(C)N2CC[C@@](CO)(CCc3cccs3)C2)cn1 [Compound 411, (S)-(1-(2-(6-methylpyridin-3-yl)propan-2-yl)-3-(2-(thiophen-2-yl)ethyl)pyrrolidin-3-yl)methanol]
  ED50: < 10 mg/kg

## CCOCC1(CCc2ccccc2)CCN(Cc2ccc(NC=O)s2)CC1 [Compound 173, N-(5-((4-(ethoxymethyl)-4-phenethylpiperidin-1-yl)methyl)thiophen-2-yl)formamide]
  ED50: > 10 mg/kg

## Cc1ccc(C(C)N2CCC(CCc3ccccc3)(c3ccccn3)CC2)c(C)n1 (stereo not drawn) [Compound 328, 2,6-dimethyl-3-(1-(4-phenethyl-4-(pyridin-2-yl)piperidin-1-yl)ethyl)pyridine]
  ED50: < 10 mg/kg

## CCOCC1(CCc2ccccc2)CCN(Cc2cc(C)c(NC(C)=O)c(C)c2)CC1 [Compound 130]
  ED50: > 10 mg/kg

## Cn1cc(CN2CCC(CCc3ccccc3)(COCc3ccccc3)C2)cn1 (stereo not drawn) [Compound 240, 4-((3-(benzyloxymethyl)-3-phenethylpyrrolidin-1-yl)methyl)-1-methyl-1H-pyrazole]
  ED50: > 10 mg/kg

## CCOCC1(CCc2ccccc2)CCN(Cc2ccc(NC(C)=O)cc2)C1 (stereo not drawn) [Compound 96, N-(4-((3-(ethoxymethyl)-3-phenethylpyrrolidin-1-yl)methyl)phenyl)acetamide]
  ED50: < 10 mg/kg

## CCOC[C@@]1(CCc2cccs2)CCN(C(C)(C)c2ccc(OC)nc2)C1.Cl [Compound 453, (S)-5-(2-(3-(ethoxymethyl)-3-(2-(thiophen-2-yl)ethyl)pyrrolidin-1-yl)propan-2-yl)-2-methoxypyridine HCl]
  ED50: < 10 mg/kg

## CCOCC1(CCc2ccc(OC)cc2)CCN(Cc2ccc(NC(C)=O)cc2)CC1.Cl [Compound 106, N-(4-((4-(ethoxymethyl)-4-(4-methoxy-phenethyl)piperidin-1-yl)methyl)phenyl)acetamide HCl]
  ED50: > 10 mg/kg

## Clc1ccccc1CN1CCC(CCc2ccccc2)(C2CCCO2)C1 (stereo not drawn) [Compound 196, 1-(2-chlorobenzyl)-3-phenethyl-3-(tetrahydrofuran-2-yl)pyrrolidine]
  ED50: > 10 mg/kg

## CCOCC1(CCc2ccc(OC)cc2)CCN(Cc2cccnc2)C1 (stereo not drawn) [Compound 292, 3-((3-(ethoxymethyl)-3-(4-methoxy-phenethyl)pyrrolidin-1-yl)methyl)pyridine]
  ED50: > 10 mg/kg

## Cn1nccc1CN1CCC(CCc2ccccc2)(C2CCCO2)C1 (stereo not drawn) [Compound 215, l-methyl-5-((3-phenethyl-3-(tetrahydrofuran-2-yl)pyrrolidin-1-yl)methyl)-1H-pyrazole]
  ED50: < 10 mg/kg

## COc1ccc(C2(/C=C\c3ccccc3)CCN(Cc3ccc(NC(C)=O)cc3)CC2)nc1 [Compound 63, (Z)-N-(4-((4-(5-methoxypyridin-2-yl)-4-styrylpiperidin-1-yl)methyl)phenyl)acetamide]
  ED50: > 10 mg/kg

## CCOC[C@]1(CCc2ccsc2)CCN(C(C)(C)c2ccc(C)nc2)C1 [Compound 352, (R)-5-(2-(3-(ethoxymethyl)-3-(2-(thiophen-3-yl)ethyl)pyrrolidin-1-yl)propan-2-yl)-2-methylpyridine]
  ED50: < 10 mg/kg

## CC(=O)Nc1ccc(CN2CCC(CCc3cccs3)(c3ccccn3)CC2)cc1 [Compound 183, N-(4-((4-(pyridin-2-yl)-4-(2-(thiophen-2-yl)ethyl)piperidin-1-yl)methyl)phenyl)acetamide]
  ED50: > 10 mg/kg

## COC[C@@]1(CCc2cccs2)CCN(Cc2cccnc2)C1 [Compound 389, (S)-3-((3-(methoxymethyl)-3-(2-(thiophen-2-yl)ethyl)pyrrolidin-1-yl)methyl)pyridine]
  ED50: < 10 mg/kg

## CCOCC1(CCc2ccccc2)CCN(Cc2ccc(-c3cn[nH]n3)cc2)CC1 [Compound 153, 1-(4-(2H-1,2,3-triazol-4-yl)benzyl)-4-(ethoxymethyl)-4-phenethylpiperidine]
  ED50: > 10 mg/kg

## CCOCC1(CCc2cccs2)CCN(Cc2cccnc2)CC1 [Compound 247, 3-((4-(ethoxymethyl)-4-(2-(thiophen-2-yl)ethyl)piperidin-1-yl)methyl)pyridine]
  ED50: < 10 mg/kg

## CCOC[C@@]1(CCc2csc(C)c2)CCN(Cc2ccc(C)nc2C)C1 [Compound 330, (S)-3-((3-(ethoxymethyl)-3-(2-(5-methylthiophen-yl)ethyl)pyrrolidin-1-yl)methyl)-2,6-dimethylpyridine]
  ED50: < 10 mg/kg

## COC[C@@]1(CCc2csc(C)c2)CCN(C(=O)c2ccc(C)nc2)C1 [Compound 381, (S)-(3-(methoxymethyl)-3-(2-(5-methylthiophen-3-yl)ethyl)pyrrolidin-1-yl)(6-methylpyridin-3-yl)methanone]
  ED50: > 10 mg/kg

## CC(=O)Nc1ccc(CN2CCC(CCc3ccccc3)(c3cc(C)co3)C2)cc1 (stereo not drawn) [Compound 203, N-(4-((3-(4-methylfuran-2-yl)-3-phenethylpyrrolidin-1-yl)methyl)phenyl)acetamide]
  ED50: > 10 mg/kg

## CCOCC1(CCc2cccs2)CCN(Cc2cnn(Cc3ccccc3)c2)CC1 [Compound 271, 1-((1-benzyl-1H-pyrazol-4-yl)methyl)-4-(ethoxymethyl)-4-(2-(thiophen-2-yl)ethyl)piperidine]
  ED50: > 10 mg/kg

## CCOCC1(CCc2ccccc2)CCN(Cc2ccc(NC(C)=O)cc2)CC1 [Compound 59, N-(4-((4-(ethoxymethyl)-4-phenethylpiperidin-1-yl)methyl)phenyl)acetamide]
  ED50: < 10 mg/kg

## CCOCC1(CCc2ccccc2)CCN(Cc2ccc(NCC(F)(F)F)cc2)CC1 [Compound 88, 4-((4-(ethoxymethyl)-4-phenethylpiperidin-1-yl)methyl)-N-(2,2,2-trifluoroethyl)aniline]
  ED50: > 10 mg/kg

## CCOC[C@@]1(CCc2ccsc2C)CCN(Cc2cccnc2)C1 [Compound 464, (S)-3-((3-(ethoxymethyl)-3-(2-(2-methylthiophen-3-yl)ethyl)pyrrolidin-1-yl)methyl)pyridine]
  ED50: < 10 mg/kg

## CC(=O)Nc1ccc(CN2CCC(CCc3ccsc3)(c3ccccn3)C2)cc1 (stereo not drawn) [Compound 190, N-(4-((3-(pyridin-2-yl)-3-(2-(thiophen-3-yl)ethyl)pyrrolidin-1-yl)methyl)phenyl)acetamide]
  ED50: > 10 mg/kg

## C=CCCC1(COCC)CCN(Cc2ccc(NC(C)=O)cc2)CC1 [Compound 100, N-(4-((4-(but-3-enyl)-4-(ethoxymethyl)piperidin-1-yl)methyl)phenyl)acetamide]
  ED50: > 10 mg/kg

## c1ccc(CCC2(C3CCCO3)CCN(Cc3cncnc3)C2)cc1 (stereo not drawn) [Compound 237, 5-((3-phenethyl-3-(tetrahydrofuran-2-yl)pyrrolidin-1-yl)methyl)pyrimidine]
  ED50: > 10 mg/kg

## Cc1ccc(CN2CC[C@@](CCc3ccsc3)(C3CCCO3)C2)cn1.Cl (stereo partly drawn) [Compound 391, 2-methyl-5-(((3R)-3-(tetrahydrofuran-2-yl)-3-(2-(thiophen-3-yl)ethyl)pyrrolidin-1-yl)methyl)pyridine HCl]
  ED50: < 10 mg/kg

## CCOCC1(CCc2ccccc2)CCN(Cc2cccnc2)CC1 [Compound 244, 3-((4-(ethoxymethyl)-4-phenethylpiperidin-1-yl)methyl)pyridine]
  ED50: < 10 mg/kg

## CC(=O)Nc1ccc(CN2CCC(CCc3ccccc3)(C3CCC(C)O3)CC2)cc1 (stereo not drawn) [Compound 160, N-(4-((4-(5-methyltetrahydro-furan-2-yl)-4-phenethylpiperidin-1-yl)methyl)phenyl)acetamide]
  ED50: < 10 mg/kg

## CCOC[C@@]1(CCc2nccc(=O)[nH]2)CCN(C(C)(C)c2ccc(C)nc2)C1 [Compound 375, (S)-2-(2-(3-(ethoxymethyl)-1-(2-(6-methylpyridin-3-yl)propan-2-yl)pyrrolidin-3-yl)ethyl)pyrimidin-4(3H)-one]
  ED50: < 10 mg/kg

## CCOC[C@@]1(CCc2nccn2C)CCN(C(C)c2ccc(C)nc2)C1.Cl (stereo partly drawn) [Compound 446, 5-(1-((S)-3-(ethoxymethyl)-3-(2-(1-methyl-1H-imidazol-2-yl)ethyl)pyrrolidin-1-yl)ethyl)-2-methylpyridine HCl]
  ED50: < 10 mg/kg

## Clc1cncc(CN2CCC(CCc3ccccc3)(C3CCCO3)C2)c1 (stereo not drawn) [Compound 243, 3-chloro-5-((3-phenethyl-3-(tetrahydrofuran-2-yl)pyrrolidin-1-yl)methyl)pyridine]
  ED50: > 10 mg/kg

## CC(=O)Nc1ccc(CN2CCC(CCc3ccccc3)(C3C=CCO3)CC2)cc1 (stereo not drawn) [Compound 74, N-(4-((4-(2,5-dihydrofuian-2-yl)-4-phenethylpiperidin-1-yl)methyl)phenyl)acetamide]
  ED50: < 10 mg/kg

## CCOCC1(CCc2ccccc2)CCN(Cc2cnn(C)c2)CC1 [Compound 245, 4-(ethoxymethyl)-1-((1-methyl-1H-pyrazol-4-yl)methyl)-4-phenethylpiperidine]
  ED50: < 10 mg/kg

## CCCCC(=O)Nc1ccc(CN2CCC(CCc3ccccc3)(COCC)CC2)cc1 [Compound 82, N-(4-((4-(ethoxymethyl)-4-phenethylpiperidin-1-yl)methyl)phenyl)pen-tanamide]
  ED50: > 10 mg/kg

## CCOCC1(CCc2ccccn2)CCN(C(C)c2ccc(C)nc2)C1 (stereo not drawn) [Compound 349, 5-(1-(3-(ethoxymethyl)-3-(2-(pyridin-2-yl)ethyl)pyrrolidin-1-yl)ethyl)-2-methylpyridine]
  ED50: < 10 mg/kg

## CCOCC1CCN(C(C)(C)c2ccc(C)nc2)C1.Cl (stereo not drawn) [Compound 460, 5-(2-(3-(ethoxy-methyl)pyrrolidin-1-yl)propan-2-yl)-2-methylpyridine HCl]
  ED50: < 10 mg/kg

## CCOCC1(CCc2cccnc2)CCN(C(C)c2ccc(C)nc2)C1 (stereo not drawn) [Compound 350, 5-(1-(3-(ethoxymethyl)-3-(2-(pyridin-3-yl)ethyl)pyrrolidin-1-yl)ethyl)-2-methylpyridine]
  ED50: < 10 mg/kg
